Test results published in US10966426B2, “Herbicidal compositions comprising phenylpyrimidines” (BASF SE, priority 2016, dated 2021).
Where “and” joins values, the source holds several entries; their conditions need not be identical. Equal values may be shown once.

Tests used:
Assay type in all cases: in vivo
Galium aparine = experiment: greenhouse pre-emergence treatment, GALAP
In short: (§1)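 Damage rated on 0 to 100 scale (0 = normal growth, 100 = no emergence or total above-ground kill) after 2-4 weeks at species-dependent 10-25° C or 20-35° C. Seeds sown per species in loamy sand, ~3.0% humus, treated right after sowing with aqueous spray of single actives or 10% emulsion-concentrate mixtures, then hooded; additive expectation by Colby.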

Helianthus annuus = experiment: greenhouse post-emergence treatment, HELAN
Procedure: (§2) The culture containers used were plastic pots containing loamy sand with approximately 3.0% of humus as substrate. The seeds of the test plants were sown separately for each species.
For the post-emergence treatment, the test plants were grown to a plant height of from 3 to 15 cm, depending on the plant habit, and only then treated with the active compounds which had been suspended or emulsified in water. To this end, the test plants were either sown directly, and grown in the same containers, or they were first grown separately as seedlings and transplanted into the test containers a few days prior to treatment.
(§3) Depending on the species, the plants were kept at 10-25° C. and 20-35° C., respectively.
(§4) The test period extended over 2 to 4 weeks. During this time, the plants were tended and their response to the individual treatments was evaluated.
(§5) Evaluation was carried out using a scale from 0 to 100. 100 means no emergence of the plants, or complete destruction of at least the above-ground parts, and 0 means no damage or normal course of growth. A good herbicidal activity is given at values of at least 70, and very good herbicidal activity is given at values of at least 85.
(§6) The respective stated components A and B, and if appropriate, C were formulated as a 10% by weight strength emulsion concentrate and, with addition of the amount of solvent system, introduced into the spray liquor used for applying the active compound. In the examples, the solvent used was water.
(§7) In the examples below, using the method of S. R. Colby (1967) “Calculating synergistic and antagonistic responses of herbicide combinations”, Weeds 15, p. 22ff., the value E, which is expected if the activity of the individual active compounds is only additive, was calculated. E=X+Y−(X·Y/100) where X=effect in percent using herbicide A at an application rate a; • Y=effect in percent using herbicide B at application rate b; • E=expected effect (in %) of herbicide A+herbicide B at application rates a+b.

Poa annua = experiment: greenhouse pre-emergence treatment, POAAN; conditions: 20 DAT
In short: as §1

Echinocloa crus-galli = experiment: greenhouse pre-emergence treatment, ECHCG
In short: as §1

Lolium multiflorum = experiment: greenhouse pre-emergence treatment, LOLMU
In short: as §1

Alopecurus myosuroides = experiment: greenhouse pre-emergence treatment, ALOMY; conditions: 20 DAT
In short: as §1

Papaver rhoeas = experiment: greenhouse pre-emergence treatment, PAPRH
In short: as §1

Stellaria media = experiment: greenhouse post-emergence treatment, STEME
In short: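 Plants were grown in loamy sand with about 3.0% humus to 3–15 cm height, then sprayed with actives formulated as 10% by weight emulsion concentrates in water. Held at 10-25° C. or 20-35° C. by species for 2 to 4 weeks; damage scored 0 (none) to 100 (complete destruction).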

Matricaria chamomilla = experiment: greenhouse pre-emergence treatment, MATCH; conditions: 20 DAT
Source text: as §2
For the pre-emergence treatment, the active compounds, suspended or emulsified in water, were applied directly after sowing by means of finely distributing nozzles. The containers were irrigated gently to promote germination and growth and subsequently covered with transparent plastic hoods until the plants had rooted. This cover caused uniform germination of the test plants unless this was adversely affected by the active compounds.
as §3, §4, §5, §6, §7

[1] = 20 DAT, Ex. 26 solo 31.25 gai/ha
[2] = 20 DAT, Ex. 26 solo 62.5 gai/ha
[3] = 20 DAT, solo Ex. 26 62.5 gai/ha
[4] = Ex. 26 solo 31.25 gai/ha, 20 DAT
[5] = Ex. 26 solo 62.5 gai/ha, 20 DAT
[6] = Ex. 26 solo, 31.25 gai/ha, 20 DAT

## COC(=O)c1nc(C2CC2)ncc1-c1ccc(F)cc1Cl [Ex. 26]
Galium aparine; [1]
  % activity: 0%
Galium aparine; [2]
  % activity: 0%
Galium aparine; 20 DAT, Ex. 26 solo 125 gai/ha
  % activity: 0%
Galium aparine; 20 DAT, GALAP, Ex. 26 solo 31.25 gai/ha
  % activity: 0%
Galium aparine; 20 DAT, GALAP, Ex. 26 solo 62.5 gai/ha
  % activity: 0%
Galium aparine; 20 DAT, GALAP, Ex. 26 solo 125 gai/ha
  % activity: 0%
Galium aparine; 20 DAT, GALAP, Ex. 26 solo 250 gai/ha
  % activity: 0%
Galium aparine; Ex. 26 solo, 31.25 gai/ha, 20 DAT, GALAP
  % activity: 0%
Galium aparine; Ex. 26 solo, 62.5 gai/ha, 20 DAT, GALAP
  % activity: 0%
Galium aparine; Ex. 26 solo, 125 gai/ha, 20 DAT, GALAP
  % activity: 0%
Galium aparine; GALAP, 20 DAT, solo Ex. 26 125 gai/ha
  % activity: 0%
Galium aparine; GALAP, Ex. 26 solo 62.5 gai/ha, 20 DAT
  % activity: 0%
Galium aparine; GALAP, Ex. 26 solo 125 gai/ha, 20 DAT
  % activity: 0%
Galium aparine; GALAP, Ex. 26 solo 250 gai/ha, 20 DAT
  % activity: 0%
Helianthus annuus; 20 DAT, Ex. 26 solo 250 gai/ha
  % activity: 0%
Helianthus annuus; 20 DAT, HELAN, Ex. 26 solo 125 gai/ha
  % activity: 0% and 10%
Helianthus annuus; 20 DAT, HELAN, Ex. 26 solo 250 gai/ha
  % activity: 10%
Helianthus annuus; Ex. 26 solo 62.5 gai/ha, 20 DAT, HELAN
  % activity: 0%
Helianthus annuus; Ex. 26 solo 125 gai/ha, 20 DAT, HELAN
  % activity: 0%
Helianthus annuus; Ex. 26 solo 250 gai/ha, 20 DAT, HELAN
  % activity: 5%
Helianthus annuus; Ex. 26 solo, 125 gai/ha, 21 DAT, HELAN
  % activity: 10%
Helianthus annuus; Ex. 26 solo, 250 gai/ha, 21 DAT, HELAN
  % activity: 25%
Poa annua; solo Ex. 26 62.5 gai/ha
  % activity: 70%
Poa annua; solo Ex. 26 125 gai/ha
  % activity: 65%
Poa annua; Ex. 26 solo 62.5 gai/ha
  % activity: 75% and 90%
Poa annua; Ex. 26 solo, 31.25 gai/ha
  % activity: 30%
Poa annua; Ex. 26 solo, 125 gai/ha
  % activity: 65%
Echinocloa crus-galli; [1]
  % activity: 50%
Echinocloa crus-galli; 20 DAT, Ex. 26 solo 125 gai/ha
  % activity: 90%
Echinocloa crus-galli; [3]
  % activity: 60%
Echinocloa crus-galli; [4]
  % activity: 50%
Echinocloa crus-galli; [5]
  % activity: 70%
Echinocloa crus-galli; Ex. 26 solo 125 gai/ha, 20 DAT
  % activity: 90%
Echinocloa crus-galli; [6]
  % activity: 50%
Lolium multiflorum; [1]
  % activity: 10%
Lolium multiflorum; 20 DAT, LOLMU, Ex. 26 solo 62.5 gai/ha
  % activity: 10%
Lolium multiflorum; Ex. 26 solo 62.5 gai/ha, 20 DAT, LOLMU
  % activity: 30%
Lolium multiflorum; Ex. 26 solo, 31.25 gai/ha, 20 DAT, LOLMU
  % activity: 0%
Lolium multiflorum; Ex. 26 solo, 62.5 gai/ha, 20 DAT, LOLMU
  % activity: 0%
Lolium multiflorum; Ex. 26 solo, 125 gai/ha, 20 DAT, LOLMU
  % activity: 0%
Lolium multiflorum; LOLMU, 20 DAT, solo Ex. 26 62.5 gai/ha
  % activity: 0%
Lolium multiflorum; LOLMU, 20 DAT, solo Ex. 26 62.5 gai/ha (Table X68)
  % activity: 0%
Lolium multiflorum; LOLMU, 20 DAT, solo Ex. 26 125 gai/ha
  % activity: 0%
Lolium multiflorum; LOLMU, Ex. 26 solo 31.25 gai/ha, 20 DAT
  % activity: 0%
Lolium multiflorum; LOLMU, Ex. 26 solo 62.5 gai/ha, 20 DAT
  % activity: 0%
Lolium multiflorum; LOLMU, Ex. 26 solo 125 gai/ha, 20 DAT
  % activity: 30%
Alopecurus myosuroides; solo Ex. 26 62.5 gai/ha
  % activity: 85%
Alopecurus myosuroides; Ex. 26 solo 62.5 gai/ha
  % activity: 60%
Alopecurus myosuroides; Ex. 26 solo, 31.25 gai/ha
  % activity: 60%
Alopecurus myosuroides; Ex. 26 solo, 62.5 gai/ha
  % activity: 80%
Papaver rhoeas; [1]
  % activity: 0%
Papaver rhoeas; [2]
  % activity: 0%
Papaver rhoeas; 20 DAT, Ex. 26 solo 125 gai/ha
  % activity: 30%
Papaver rhoeas; [3]
  % activity: 0%
Papaver rhoeas; [4]
  % activity: 0%
Papaver rhoeas; [5]
  % activity: 0%
Papaver rhoeas; Ex. 26 solo 125 gai/ha, 20 DAT
  % activity: 0% and 30%
Papaver rhoeas; [6]
  % activity: 0%
Papaver rhoeas; Ex. 26 solo, 62.5 gai/ha, 20 DAT
  % activity: 0%
Papaver rhoeas; Ex. 26 solo, 125 gai/ha, 20 DAT
  % activity: 0%
Stellaria media; [2]
  % activity: 0%
Stellaria media; 20 DAT, STEME, Ex. 26 solo 250 gai/ha
  % activity: 60%
Stellaria media; Ex. 26 solo 62.5 gai/ha, 20 DAT, STEME
  % activity: 20%
Stellaria media; Ex. 26 solo 125 gai/ha, 20 DAT, STEME
  % activity: 55%
Stellaria media; Ex. 26 solo 125 gai/ha, 21 DAT, STEME
  % activity: 0%
Stellaria media; Ex. 26 solo 250 gai/ha, 20 DAT, STEME
  % activity: 30%
Stellaria media; Ex. 26 solo, 125 gai/ha, 21 DAT, STEME
  % activity: 0%
Stellaria media; Ex. 26 solo, 250 gai/ha, 21 DAT, STEME
  % activity: 10%
Stellaria media; STEME, 21 DAT, solo Ex. 26 62.5 gai/ha
  % activity: 0%
Stellaria media; STEME, 21 DAT, solo Ex. 26 125 gai/ha
  % activity: 0%
Stellaria media; STEME, 21 DAT, solo Ex. 26 250 gai/ha
  % activity: 10%
Stellaria media; STEME, Ex. 26 solo 125 gai/ha, 20 DAT
  % activity: 40%
Stellaria media; STEME, Ex. 26 solo 250 gai/ha, 20 DAT
  % activity: 40%
Matricaria chamomilla; Ex. 26 solo 62.5 gai/ha
  % activity: 0%
Matricaria chamomilla; Ex. 26 solo 125 gai/ha
  % activity: 0%
